Read-outs that look alike come from different tables or passages of the source.
Key:
[1] = system: HIV-1 92UG029 (clade A virus); assay: HIV cell culture assay, 92UG029 Gag/Pr recombinant virus in MT-2 cells; assay type: cell-based
Description: MT-2 cells and 293T cells were obtained from the NIH AIDS Research and Reference Reagent Program. MT-2 cells were propagated in RPMI 1640 media supplemented with 10% heat-inactivated fetal bovine serum, […]. The 293T cells were propagated in DMEM media supplemented with 10% heat-inactivated fetal bovine serum (FBS), 100 units/mL penicillin G and 100 μg/mL streptomycin. The proviral DNA clone of NL4-3 was obtained from the NIH AIDS Research and Reference Reagent Program. A recombinant NL4-3 virus, in which a section of the nef gene from NL4-3 was replaced with the Renilla luciferase gene, was used as a reference virus. In addition, residue Gag P373 was converted to P373S. Briefly, the recombinant virus was prepared by transfection of the altered proviral clone of NL4-3. Transfections were performed in 293T cells using LipofectAMINE PLUS from Invitrogen (Carlsbad, Calif.), according to manufacturer's instruction. The virus was titered in MT-2 cells using luciferase enzyme activity as a marker. Luciferase was quantitated using the Dual Luciferase kit from Promega (Madison, Wis.), with modifications to the manufacturer's protocol. The diluted Passive Lysis solution was pre-mixed with the re-suspended Luciferase Assay Reagent and the re-suspended Stop & Glo Substrate (2:1:1 ratio). Fifty (50) μL of the mixture was added to each aspirated well on assay plates and luciferase activity was measured immediately on a Wallac TriLux (Perkin-Elmer). Antiviral activities of inhibitors toward the recombinant virus were quantified by measuring luciferase activity in cells infected for 4-5 days with NLRluc recombinants in the presence serial dilutions of the inhibitor.
Determination of EC50 for WT, EC50 for A364V, and EC50 for 92UG029 viruses:
HIV-1 92UG029 was obtained from the NIH (Catalog Number: 1650). This is a subtype A Gag and subtype A Env, X4 (SI) virus from Uganda. Reference: WHO Network for HIV Isolation and Characterization. AIDS Res Hum Retroviruses 10:1359, 1994. The Gag/Pr region from 92UG029 was used to replace that in an HIV-1 NL4-3 virus expressing Renilla luciferase gene.
Both recombinant viruses were used as described above in the HIV cell culture assay for the NL4-3 virus.

[2] = system: HIV-1 NL4-3 gag A364V virus; assay: microbe, parasite or virus in culture; assay type: cell-based
Procedure, shortened: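 Recombinant NL4-3 reporter virus with Renilla luciferase replacing part of nef, made by transfection of 293T cells. MT-2 cells infected for 4-5 days with serial inhibitor dilutions; antiviral activity quantified by luciferase activity.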

[3] = Rat PO pharmacokinetic study; assay type: in vivo; conditions: male, Sprague-Dawley, plasma, oral dose of 5 mg/kg, PEG-400/ethanol (90/10) solution, fasted rats
Description: Rat Pharmacokinetic Studies:
For the PO pharmacokinetic studies of the compounds in rats, the compounds were each dissolved in PEG-400/ethanol (90/10) as a solution.
Rat. Male Sprague-Dawley rats (300-350 g, Hilltop Lab Animals, Inc., Scottsdale, Pa.) with cannulas implanted in the jugular vein were used. The rats were fasted overnight in the PO pharmacokinetic studies. Blood samples of 0.3 mL were collected from the jugular vein in EDTA-containing microtainer tubes (Becton Dickinson, Franklin Lakes, N.J.), and centrifuged to separate plasma.
In the PO study of the tested compounds, the rats (n=3) received an oral dose of 5 mg/kg of the indicated compound. Serial blood samples were collected before dosing and 15, 30, 45, 60, 120, 240, 360, 480, and 1440 min after dosing.
Quantitation of Compounds in Plasma. Aliquots of plasma samples from rat, studies were prepared for analysis by precipitating plasma proteins with two volumes of acetonitrile containing an internal standard of a similar compound. The resulting supernates were separated from the precipitated proteins by centrifugation for 10 minutes and transferred to autosampler vials. Samples were either prepared manually, or with the use of the Tomtec automated liquid handler. An aliquot of 5 μL was injected for analysis.
The HPLC system consisted of two Shimadzu LC10AD pumps (Columbia, Md.), a Shimadzu SIL-HTC autosampler (Columbia, Md.), and a Hewlett Packard Series 1100 column compartment (Palo Alto, Calif.). The column was a YMC Pro C18 (2.0×50 mm, 3 μm particles, Waters Co., Milford, Mass.), maintained at 60° C. and a flow rate of 0.3 ml/min. The mobile phase consisted of 10 mM ammonium formate and 0.1% formic acid in water (A) and 100% 10 mM ammonium formate and 0.1% formic acid in methanol (B). The initial mobile phase composition was 95% A. After sample injection, the mobile phase was changed to 15% A/85% B over 2 minutes and held at that composition for an additional 1 minute. The mobile phase was then returned to initial conditions and the column re-equilibrated for 1 minute. Total analysis time was 4 minutes.
The HPLC was interfaced to a Micromass Quattro LC. Ultra high purity nitrogen was used as the nebulizing and desolvation gas at flow rates of 100 L/hr for nebulization and 1100 L/hr for desolvation. The desolvation temperature was 300° C. and the source temperature was 150° C. Data acquisition utilized selected reaction monitoring (SRM). Ions representing the (M+H)^+ species for the compound and the internal standard were selected in MS1 and collisionally dissociated with argon at a pressure of 2×10^−3 torr to form specific product ions which were subsequently monitored by MS2.

[4] = system: WT (wild-type HIV virus; recombinant NL4-3 virus); assay: microbe, parasite or virus in culture; assay type: cell-based, HIV-1
Procedure, shortened: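 MT-2 cells infected 4-5 days with NL4-3 carrying Renilla luciferase in place of part of nef (Gag P373S), virus made by 293T transfection, with serial inhibitor dilutions. Antiviral activity read as luciferase activity by a modified dual-luciferase read-out.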

[5] = Human immunodeficiency virus 1, MT2, read-out: EC50 92UG029 (μM)
[6] = Human immunodeficiency virus 1, NL43, MT2, read-out: EC50 A364V (μM), Table 2, 3× higher viral input
[7] = Human immunodeficiency virus 1, NL43, MT2, read-out: EC50 WT (μM), Table 2, 3× higher viral input
[8] = Human immunodeficiency virus 1, MT2, read-out: 92UG029A Clade T332S/V362I/V370A (EC50, uM)
[9] = Human immunodeficiency virus 1, NL43, MT2, read-out: A364V (EC50, uM), Table 1 regular screen, MT-2 cells, luciferase readout
[10] = Human immunodeficiency virus 1, NL43, MT2, read-out: WT (EC50, uM), Table 1 regular screen, MT-2 cells, luciferase readout

C=C(C)[C@@H]1CC[C@]2(NCCN3CCS(=O)(=O)CC3)CC[C@]3(C)[C@H](CC[C@@H]4[C@@]5(C)CC=C(C6=CCC(C)(C(=O)O)CC6)C(C)(C)[C@@H]5CC[C@]43C)[C@@H]12 (stereo partly shown) [Compound B, reference compound]
EC50 [1, 5]: 0.03 µM | fold less potent than Compound 2 vs 92UG029 ([1]; relative to Compound 2): 6 fold | EC50 [2, 6]: 1.3 µM | fold less potent than Compound 2 vs A364V ([2]; relative to Compound 2): 6 fold | AUC [3]: 6.46 µM·h | EC50 [4, 7]: 0.002 µM | potency vs. WT (in words) ([4]; comparative data): comparable potency

C=C(C)[C@@H]1CC[C@]2(NCCN3CCS(=O)(=O)CC3)CC[C@]3(C)[C@H](CC[C@@H]4[C@@]5(C)CC=C(C6=CC[C@](CF)(C(=O)O)CC6)C(C)(C)[C@@H]5CC[C@]43C)[C@@H]12 [Example 2a, (S)-4-((1R,3aS,5aR,5bR,7aR,11aS,11bR,13aR,13bR)-3a-((2-(1,1-dioxidothiomorpholino)ethyl)amino)-5a,5b, 8,8,11a-pentamethyl-1-(prop-1-en-2-yl)-2,3,3a,4,5,5a,5b,6,7,7a,8,11,11a,11b,12,13,13a,13b-octadecahydro-1H-cyclopenta[a]chrysen-9-yl)-1-(fluoromethyl)cyclohex-3-enecarboxylic acid]
EC50 [1, 8]: 0.00706 µM | EC50 [1, 5]: 0.02 µM | EC50 [2, 9]: 0.16 µM | EC50 [2, 6]: 0.78 µM | AUC [3]: 7.03 µM·h | EC50 [4, 7]: 0.002 µM | EC50 [4, 10]: 0.00198 µM

C=C(C)[C@@H]1CC[C@]2(NCCN3CCS(=O)(=O)CC3)CC[C@]3(C)[C@H](CC[C@@H]4[C@@]5(C)CC=C(C6=CCC(CF)(C(=O)O)CC6)C(C)(C)[C@@H]5CC[C@]43C)[C@@H]12 (mixture of isomers) [Example 2, 4-((1R,3aS,5aR,5bR,7aR,11aS,11bR,13aR,13bR)-3a-((2-(1,1-dioxidothiomorpholino)ethyl)amino)-5a,5b,8,8,11a-pentamethyl-1-(prop-1-en-2-yl)-2,3,3a,4,5,5a,5b,6,7,7a,8,11,11a,11b,12,13,13a,13b-octadecahydro-1H-cyclopenta[a]chrysen-9-yl)-1-(fluoromethyl)cyclohex-3-enecarboxylic acid]
EC50 [1, 8]: 0.00461 µM | EC50 [1, 5]: 0.005 µM | EC50 [2, 9]: 0.0847 µM | EC50 [2, 6]: 0.21 µM | AUC [3]: 7.93 µM·h | EC50 [4, 7]: 0.002 µM | EC50 [4, 10]: 0.00129 µM

C=C(C)[C@@H]1CC[C@]2(NCCN3CCS(=O)(=O)CC3)CC[C@]3(C)[C@H](CC[C@@H]4[C@@]5(C)CC=C(C6=CC[C@@](CF)(C(=O)O)CC6)C(C)(C)[C@@H]5CC[C@]43C)[C@@H]12 [Example 2b, (R)-4-((1R,3aS,5aR,5bR,7aR,11aS,11bR,13aR,13bR)-3a-((2-(1,1-dioxidothiomorpholino)ethyl)amino)-5a,5b,8,8,11a-pentamethyl-1-(prop-1-en-2-yl)-2,3,3a,4,5,5a,5b,6,7,7a,8,11,11a,11b,12,13,13a,13b-octadecahydro-1H-cyclopenta[a]chrysen-9-yl)-1-(fluoromethyl)cyclohex-3-enecarboxylic acid]
EC50 [1, 8]: 0.00618 µM | EC50 [1, 5]: 0.001 µM | EC50 [2, 9]: 0.201 µM | EC50 [2, 6]: 0.17 µM | AUC [3]: 7.39 µM·h | EC50 [4, 7]: 0.003 µM | EC50 [4, 10]: 0.00148 µM

Source: patent US10245275B2 (ViiV HEALTHCARE UK (NO.4) LIMITED, priority 2014, dated 2019)
